Results: PubChem BioAssay (NCI)
Several values for one entry are separate records, joined by “and”; a condition that tells them apart may be missing. Equal entries are not always repeated.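 Interpolation was linear, between the two tested concentrations surrounding the appropriate level; five concentrations were tested over 48 hours in 96-well plates. GI50 = concentration required for 50% inhibition of growth. TGI is the concentration that stops growth completely.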 Activity calls are given as the source filed them. Cut-off read from the data, not from the text of the source: active = GI50 below about 0.43 µM; inactive = the rest.

How the values were obtained:
Assay in all cases: DTP human tumour cell line panel, 48 h
BT-549 breast = test system: BT-549 breast
HOP-18 NSCLC = test system: HOP-18 NSCLC
XF 498 CNS = test system: XF 498 CNS
LXFL 529 NSCLC = test system: LXFL 529 NSCLC
M19-MEL melanoma = test system: M19-MEL melanoma
DLD-1 colon = test system: DLD-1 colon
DMS 273 small cell lung = test system: DMS 273 small cell lung
DMS 114 small cell lung = test system: DMS 114 small cell lung

Row | Compound | TGI (BT-549 breast) | TGI (HOP-18 NSCLC) [µM] | TGI (XF 498 CNS) [µM] | TGI (LXFL 529 NSCLC) [µM] | TGI (M19-MEL melanoma) | TGI (DLD-1 colon) | TGI (DMS 273 small cell lung) | GI50 (BT-549 breast) [µM] | TGI (DMS 114 small cell lung) | further results
1 | CC(C)(C)c1cc(NC(=O)Cc2ccc(-c3cnc4cc(-c5cnn(CCN6CCOCC6)c5)ccc4n3)cc2)no1 | 39.5 µM and > 100 µM and > 3 µM |  |  |  |  |  |  |  |  | 
2 | CCCS(=O)(=O)/C(=C(\c1ccc(Br)cc1)S(=O)(=O)CCC)c1ccc(Br)cc1 |  | > 10 | > 10 | > 10 | > 10 µM | > 10 µM | > 10 µM |  |  | 
3 | COc1ccc2nc3cc(Cl)ccc3c(NCCN)c2c1 | 3.39 µM |  |  |  |  |  |  | 1.81 |  | 
4 | CCCCCN(CCCCC)CC(O)c1ccc(Cl)c2ccccc12 (stereo unspecified) | 33.7 µM |  |  |  |  |  |  | 16.3 |  | 
5 | CO[C@H]1C=C[C@@]23c4cc5c(cc4CO[C@]2(O)CN(C)[C@H]3C1)OCO5 | > 100 µM |  |  |  |  |  |  |  |  | 
6 | CC(=O)O.[Au].c1ccc([PH+](c2ccccc2)c2ccccc2)cc1 |  | 3.86 |  | 2.92 | 15.6 µM | 4.4 µM | 55.4 µM |  |  | GI50 (HOP-18 NSCLC): 2.14 µM; GI50 (LXFL 529 NSCLC): 1.57 µM; GI50 (M19-MEL melanoma): 2.67 µM; GI50 (DLD-1 colon): 1.9 µM; GI50 (DMS 273 small cell lung): 11.3 µM
7 | C/C=C1/C(=C/c2[nH]c(/C=c3\[nH]/c(=C/C4=NC(=O)C(CC)=C4C)c(C)c3CCC(=O)O)c(CCC(=O)O)c2C)NC(=O)C1C (stereo unspecified) |  |  |  |  | > 150 µg/mL | > 150 µg/mL | > 150 µg/mL |  | > 150 µg/mL | GI50 (DMS 114 small cell lung): > 150 µg/mL; outcome (XF 498 CNS): inactive; outcome (LXFL 529 NSCLC): inactive; GI50 (M19-MEL melanoma): > 150 µg/mL; GI50 (DLD-1 colon): > 150 µg/mL; GI50 (DMS 273 small cell lung): > 150 µg/mL
8 | COC(=O)C(=O)C(C(=O)C=C(C)C)C(=O)C(=O)Nc1ccc(C)cc1C (stereo unspecified) |  | > 100 | > 100 | > 100 | > 100 µM | > 100 µM | > 100 µM |  | > 100 µM | 
9 | Cc1ccc(NC(=O)c2sc3nc(C)c(C(O)c4ccccc4)cc3c2N)cc1 (stereo unspecified) | 33.7 µM |  |  |  |  |  |  | 1.15 |  | 
10 | c1cc[c]([Pb]([c]2ccccc2)[c]2ccccc2)cc1 |  | 50.8 | 42.7 | 17.2 |  | 29.6 µM | 27.8 µM |  | 12.7 µM | GI50 (HOP-18 NSCLC): 16.8 µM; GI50 (DMS 114 small cell lung): 1.92 µM; GI50 (XF 498 CNS): 23.9 µM; GI50 (LXFL 529 NSCLC): 4.03 µM; GI50 (DLD-1 colon): 11.9 µM; GI50 (DMS 273 small cell lung): 10.4 µM
11 | CN(C)C(c1ccccc1)C(O)c1ccccc1 (stereo unspecified) |  | > 100 | > 100 | > 100 | > 100 µM | > 100 µM | > 100 µM |  | > 100 µM | 
12 | Cn1c2ccccc2c2c3[nH]c(=O)[nH]c(=O)c3c3c4ccccc4n(C)c3c21 | 18.7 µM |  |  |  |  |  |  | 2.83 |  | 
13 | N#CCC(=O)NC1C2CC3CC(C2)CC1C3 (stereo unspecified) |  |  |  | > 100 | > 100 µM | 48.9 µM | 48.2 µM |  | 30.5 µM | 
14 | CC[C@H](C)[C@H]1O[C@]2(C=C[C@@H]1C)C[C@@H]1C[C@@H](C/C=C(\C)[C@@H](O[C@H]3C[C@H](OC)[C@@H](O[C@H]4C[C@H](OC)[C@@H](NC)[C@H](C)O4)[C@H](C)O3)[C@@H](C)/C=C/C=C3\CO[C@@H]4[C@H](O)C(C)=C[C@@H](C(=O)O1)[C@]34O)O2 | 15.1 µM |  |  |  |  |  |  | 4.13 |  | 
15 | C/C(=N\Nc1ccc(Cl)cn1)c1ccccn1 | > 76 µM |  |  |  |  |  |  | 0.362 |  | 
16 | CON(C)C(=O)N1N=C(c2cc(F)ccc2F)SC1(CCCN)c1ccccc1 (stereo unspecified) | 17.5 µM |  |  |  |  |  |  | 0.302 |  | 
17 | OC/C=C(\I)CCCOCOCc1ccccc1 |  |  | 45.8 | > 100 | > 100 µM | > 100 µM | 44.4 µM |  | 69 µM | 
18 | COc1cc(NS(=O)(=O)c2ccc(-c3cnc(C4CC4)o3)cc2)ccc1F | 20.3 µM |  |  |  |  |  |  | 2.02 |  | 
19 | Cc1[nH]c2ccccc2c1C1Cc2ccccc2N1C(=O)/C(Cl)=C/c1ccccc1 (stereo unspecified) |  | > 100 | > 100 | > 100 | > 100 µM | > 100 µM | > 100 µM |  | > 100 µM | 
20 | COc1ccc(OC)c(C(=O)c2oc3ccc(Br)cc3c2N)c1 | 21.1 µM |  |  |  |  |  |  | 0.584 |  | 
21 | CCCCCCC(=O)C/C(=N/NC(N)=S)C(=O)NC1C2CC3CC(C2)CC1C3 (stereo unspecified) |  |  |  | > 100 | > 100 µM | > 100 µM |  |  |  | 
22 | CC(=O)N1C/C(=C\c2ccc(N(C)C)cc2)C(=O)/C(=C/c2ccc(N(C)C)cc2)C1 |  | > 100 | > 100 | > 100 | > 100 µM | > 100 µM | > 100 µM |  | 60.1 µM | 
23 | COc1cc2c3c(n(CCCCOC(=O)C(Cl)(Cl)Cl)c(=O)c2cc1OC)-c1cc2c(cc1C3=O)OCO2 | > 100 µM |  |  |  |  |  |  | 57.1 |  | 
24 | Cc1nc2ccccc2c(=O)n1-c1ccccc1F |  | > 100 |  | > 100 | > 100 µM | > 100 µM | > 100 µM |  | > 100 µM | 
25 | CC(C)c1cc2c(O)c(c1)Cc1cc(C(C)C)cc(c1O)Cc1cc(C(C)C)cc(c1O)Cc1cc(C(C)C)cc(c1O)C2 |  | > 100 | > 100 |  | > 100 µM | > 100 µM | > 100 µM |  | > 100 µM | 
26 | CNc1nc(N)c(N=O)c(Nc2ccc(Br)cc2)n1 | > 100 µM |  |  |  |  |  |  |  |  | 
27 | C=C(C)C1CCC2(C(=O)O)CCC3(C)C(CCC4C5(C)CCC(OC(=O)NCc6ccccc6)C(C)(C)C5CCC43C)C12 (stereo unspecified) | 33.3 µM |  |  |  |  |  |  | 4.05 |  | 
28 | CCN(CC)CCCC(C)Nc1cnc(C(=O)Nc2cccc3ccc(OC)nc23)cn1 (stereo unspecified) | 4.47 µM |  |  |  |  |  |  | 1.95 |  | 
29 | O=c1[nH]c(=O)n(C2OC(CO)C(O)C(O)C2O)cc1F (stereo unspecified) | > 100 µM | > 100 | > 100 | > 100 | > 100 µM | > 100 µM |  |  | > 100 µM | 
30 | N#CCc1ccc(C(C#N)/C(CCCC(=O)Nc2cccc([N+](=O)[O-])c2)=N/NC(N)=S)cc1 (stereo unspecified) |  | > 100 |  | > 100 |  | > 100 µM | > 100 µM |  | > 100 µM | 
